Consider 18 compounds from PubChem BioAssay AID1259408 (Genetic Toxicology Data Bank (GENE-TOX), 2018).

The subject of the data set is GENE-TOX genotoxicity assays, various organisms and cells. As to the kind of experiment: GENE-TOX mutagenicity studies. The following applies: for call: Assay Type: In vivo carcinogenicity studies.
Setting [1] is: Species/Cell Type: Chinese hamster lung (V79) cells, Assay Type: Forward gene mutation at the HPRT or ouabain locus, Assay Code: V79+, Evaluation Type: Evaluation A (Pre-1980).
Setting [2] is: Species/Cell Type: Drosophila melanogaster, Assay Type: Sex-linked recessive lethal gene mutation, Assay Code: SRLT, Evaluation Type: Evaluation A (Pre-1980).
The mark [3] stands for this setting: Species/Cell Type: Nonhuman, Assay Type: Sister-chromatid exchange (SCE) in vitro, Assay Code: SC2+D, Dose Response: With dose response, Evaluation Type: Evaluation B (Post-1980).
Setting [4] is: Species/Cell Type: Saccharomyces cerevisiae, Assay Type: Mitotic recombination or gene conversion, Assay Code: YEC+, Evaluation Type: Evaluation A (Pre-1980).
Setting [5] is: Species/Cell Type: Saccharomyces cerevisiae, Assay Type: Mitotic recombination or gene conversion, Assay Code: YEH+, Evaluation Type: Evaluation A (Pre-1980).
[6] abbreviates: Species/Cell Type: Salmonella typhimurium (one or more of the five standard strains: TA98, TA100, TA1535, TA1537, and TA1538), Assay Type: Histidine reverse gene mutation, Ames assay, Assay Code: SAL+, Evaluation Type: Evaluation A (Pre-1980).
Where [7] appears, read: Species/Cell Type: Chinese hamster lung (V79) cells, Assay Type: Forward gene mutation at the HPRT or ouabain locus, Assay Code: V79-*, Activation: With metabolic activation, Evaluation Type: Evaluation A (Pre-1980).
Setting [8] is: Species/Cell Type: Vicia faba, Assay Type: Chromosome aberrations, Assay Code: VIC+, Evaluation Type: Evaluation A (Pre-1980).
[9] abbreviates: Species/Cell Type: Salmonella typhimurium, Assay Type: Forward and reverse gene mutation, host-mediated assay, Assay Code: HMA-, Evaluation Type: Evaluation A (Pre-1980).
Setting [10] is: Species/Cell Type: Chinese hamster ovary (CHO) cells, Assay Type: Forward gene mutation at the HPRT locus, Assay Code: CHO+, Evaluation Type: Evaluation B (Post-1980).

Active and inactive are the calls of the source. How the calls were made is not given here.

As to `NC(=O)/C(=C\c1ccc([N+](=O)[O-])o1)c1ccco1`, the mutagenic call is, setting by setting: (Species/Cell Type: Bacillus subtilis (H17 vs M45), Assay Type: Rec-assay, spot test, DNA effects (bacterial DNA repair), Assay Code: REW+, Evaluation Type: Evaluation A (Pre-1980)) “active; positive”; under setting [1], “active; positive”; under setting [2], “no conclusion”; (Species/Cell Type: Escherichia coli WP2 UVRA, Assay Type: Tryptophan reverse gene mutation, Assay Code: WPU+D, Dose Response: With dose response, Evaluation Type: Evaluation A (Pre-1980)) “active; positive”; (Species/Cell Type: Human diploid fibroblasts, Assay Type: Unscheduled DNA synthesis (UDS) in vitro, DNA effects, Assay Code: UDHT, Evaluation Type: Evaluation A (Pre-1980)) “no conclusion”; (Species/Cell Type: Human, Assay Type: Sister-chromatid exchange (SCE) in vitro, Assay Code: SC1+D, Dose Response: With dose response, Evaluation Type: Evaluation B (Post-1980)) “active; positive”. In addition, the mutagenic call by setting is: (Species/Cell Type: Mammalian polychromatic erythrocytes, Assay Type: Micronucleus test, chromosome aberrations, Assay Code: MNTT, Evaluation Type: Evaluation A (Pre-1980)) “no conclusion”; (Species/Cell Type: Mouse lymphoma (L5178Y) cells, Assay Type: Forward gene mutation at the thymidine kinase (TK) locus, chromosome aberrations, Assay Code: L51+, Evaluation Type: Evaluation A (Pre-1980)) “active; positive”; (Species/Cell Type: Mouse, Sex: Male, Assay Type: Sperm morphology, Assay Code: SPI-, Evaluation Type: Evaluation A (Pre-1980)) “inactive; negative”; (Species/Cell Type: Neurospora crassa, Assay Type: Forward gene mutation, Assay Code: NEF+, Evaluation Type: Evaluation A (Pre-1980)) “active; positive”; (Species/Cell Type: Neurospora crassa, Assay Type: Reverse gene mutation, Assay Code: NER+, Evaluation Type: Evaluation A (Pre-1980)) “active; positive”; under setting [3], “active; positive”. Moreover, the mutagenic call by setting is: (Species/Cell Type: Rodents, Sex: Male, Assay Type: Dominant lethal test, Assay Code: DLT-, Evaluation Type: Evaluation A (Pre-1980)) “inactive; negative”; under setting [4], “active; positive”; under setting [5], “active; positive”; (Species/Cell Type: Saccharomyces cerevisiae, Assay Type: Reverse gene mutation, Assay Code: YER+, Evaluation Type: Evaluation A (Pre-1980)) “active; positive”; under setting [6], “active; positive”; (Species/Cell Type: Syrian hamster embryo (SHE) cells, Assay Type: Cell transformation, clonal assay, Assay Code: CTC+, Evaluation Type: Evaluation A (Pre-1980)) “active; positive”. For the same compound, under “Species/Cell Type: Nonhuman, Assay Code: CCG+, Evaluation Type: Evaluation A (Pre-1980)”, the call is “active; positive”.
Turning to `CC(C)(C)Br`, the mutagenic call (Species/Cell Type: Escherichia coli polA (W3119 vs P3478), Assay Type: Rec-assay, DNA effects (bacterial DNA repair), Assay Code: RE1-, Evaluation Type: Evaluation A (Pre-1980)) was “inactive; negative”.
With `Cc1c2c(c(C)c3ccccc13)C(O)C(O)c1ccccc1-2` (stereo unspecified), the mutagenic call under setting [7] was “inactive; negative”.
On to `CCCC(=O)Nc1ccc(OCC(O)CNC(C)C)c(C(C)=O)c1` (stereo unspecified), for which the mutagenic call (Species/Cell Type: Mammalian polychromatic erythrocytes, Assay Type: Micronucleus test, chromosome aberrations, Assay Code: MNT+, Evaluation Type: Evaluation B (Post-1980)) was “active; positive”.
As to `CN(N=O)c1ccccc1`, the mutagenic call runs as follows: under setting [7], “inactive; negative”; under setting [8], “active; positive”.
Regarding `O.O.O.O.O.O.O.O.O.O=[N+]([O-])[O-].O=[N+]([O-])[O-].O=[N+]([O-])[O-].[Cr+3]`, the mutagenic call (Species/Cell Type: Nonhuman, Assay Type: Sister-chromatid exchange (SCE) in vitro, Assay Code: SC2+, Evaluation Type: Evaluation B (Post-1980)) is “active; positive”.
In the case of `OCN1CCN(CO)C1=S`, the mutagenic call (Species/Cell Type: Mammalian polychromatic erythrocytes, Assay Type: Micronucleus test, chromosome aberrations, Assay Code: MNTT, Evaluation Type: Evaluation B (Post-1980)) was “no conclusion”.
In the case of `COc1cc2c(c3oc(=O)c4c(c13)CCOC4=O)C1C=COC1O2` (stereo unspecified), the mutagenic call by setting is: (Species/Cell Type: Aspergillus nidulans, Assay Type: Forward gene mutation, Assay Code: ASF+*, Activation: With metabolic activation, Evaluation Type: Evaluation A (Pre-1980)) “active; positive”; under setting [2], “no conclusion”; (Species/Cell Type: Drosophila melanogaster, Sex: Male, Assay Type: Heritable translocation test, chromosome aberrations, Assay Code: DHTT, Evaluation Type: Evaluation A (Pre-1980)) “no conclusion”; (Species/Cell Type: Human lymphocytes or leukocytes, Assay Type: Chromosome aberrations in vitro, Assay Code: CY7T, Evaluation Type: Evaluation A (Pre-1980)) “no conclusion”; under setting [8], “active; positive”.
Consider `[Cl][Ce]([Cl])[Cl]`, for which the mutagenic call (Species/Cell Type: Bacillus subtilis (H17 vs M45), Assay Type: Rec-assay, spot test, DNA effects (bacterial DNA repair), Assay Code: REW-, Evaluation Type: Evaluation A (Pre-1980)) was “inactive; negative”.
Regarding `Cc1ccc2cc3c(ccc4ccccc43)c3c2c1C(O)C3` (stereo unspecified), the mutagenic call by setting is: under setting [1], “active; positive”; (Species/Cell Type: Salmonella typhimurium (one or more of the five standard strains: TA98, TA100, TA1535, TA1537, and TA1538), Assay Type: Histidine reverse gene mutation, Ames assay, Assay Code: SALT, Evaluation Type: Evaluation A (Pre-1980)) “no conclusion”. In addition, the call (Species/Cell Type: Nonhuman, Assay Code: CCG+L, Evaluation Type: Evaluation A (Pre-1980)) is “active; positive”.
On to `C/C=C/C#CC#CC#C/C=C/C(O)CO` (stereo unspecified), for which, where the note is “Species/Cell Type: Nonhuman, Assay Type: Sister-chromatid exchange (SCE) in vitro, Assay Code: SC2T, Evaluation Type: Evaluation B (Post-1980)”, the mutagenic call is “no conclusion”.
For the compound `CC(=O)OCN(C)N=O`, the mutagenic call (Species/Cell Type: Salmonella typhimurium, Assay Type: Forward and reverse gene mutation, host-mediated assay, Assay Code: HMA+, Evaluation Type: Evaluation A (Pre-1980)) was “active; positive”.
With `NC(=O)N1c2ccccc2[C@H](O)[C@@H](O)c2ccccc21`, the mutagenic call reads like this: (Species/Cell Type: Human lymphocytes, Assay Type: Sister-chromatid exchange (SCE) in vitro, Assay Code: SCL+, Evaluation Type: Evaluation B (Post-1980)) “active; positive”; (Species/Cell Type: Human, Assay Type: Sister-chromatid exchange (SCE) in vitro, Assay Code: SC1+, Evaluation Type: Evaluation B (Post-1980)) “active; positive”.
In the case of `C1CCNCC1`, under setting [9], the mutagenic call was “inactive; negative”.
For the compound `O=C1c2ccccc2C(=O)N1SC(Cl)(Cl)Cl`, the mutagenic call was “no conclusion” (Species/Cell Type: Bacillus subtilis (H17 vs M45), Assay Type: Rec-assay, spot test, DNA effects (bacterial DNA repair), Assay Code: REWT, Evaluation Type: Evaluation A (Pre-1980)); “active; positive” under setting [10]; “active; positive” (Species/Cell Type: Drosophila melanogaster, Assay Type: Sex-linked recessive lethal gene mutation, Assay Code: SRL+, Evaluation Type: Evaluation A (Pre-1980)); “active; positive” (Species/Cell Type: Escherichia coli WP2, Assay Type: Tryptophan reverse gene mutation, Assay Code: WP2+, Evaluation Type: Evaluation A (Pre-1980)); “inactive; positive without activation, negative with activation” (Species/Cell Type: Escherichia coli WP2 UVRA, Assay Type: Tryptophan reverse gene mutation, Assay Code: WPU+/-*, Activation: With metabolic activation, Evaluation Type: Evaluation A (Pre-1980)); “active; positive” (Species/Cell Type: Escherichia coli polA (W3119 vs P3478), Assay Type: Rec-assay, DNA effects (bacterial DNA repair), Assay Code: RE1+, Evaluation Type: Evaluation A (Pre-1980)). Besides, the mutagenic call is “inactive; negative” (Species/Cell Type: Human diploid fibroblasts, Assay Type: Unscheduled DNA synthesis (UDS) in vitro, DNA effects, Assay Code: UDH-, Evaluation Type: Evaluation A (Pre-1980)); “no conclusion” (Species/Cell Type: Rodents, Sex: Male, Assay Type: Dominant lethal test, Assay Code: DLTT, Evaluation Type: Evaluation A (Pre-1980)); “active; positive” under setting [4]; “active; positive” under setting [5]; “active; positive” under setting [6]; “inactive; negative” under setting [9].
Regarding `C[C@H]1O[C@@H](O[C@H]2[C@@H](O)C[C@H](O[C@H]3[C@@H](O)C[C@H](O[C@H]4CC[C@@]5(C)[C@H](CC[C@@H]6[C@@H]5C[C@@H](O)[C@]5(C)[C@@H](C7=CC(=O)OC7)CC[C@]65O)C4)O[C@@H]3C)O[C@@H]2C)C[C@H](O)[C@@H]1O`, the mutagenic call (Species/Cell Type: Escherichia coli polA (W3119 vs P3478), Assay Type: Rec-assay, DNA effects (bacterial DNA repair), Assay Code: RE1T, Evaluation Type: Evaluation A (Pre-1980)) is “no conclusion”.
For `CO[C@H](C(=O)[C@@H](O)[C@@H](C)O)[C@@H]1Cc2cc3cc(O[C@H]4C[C@@H](O[C@H]5C[C@@H](O)[C@H](O)[C@@H](C)O5)[C@H](O)[C@@H](C)O4)c(C)c(O)c3c(O)c2C(=O)[C@H]1O[C@H]1C[C@@H](O[C@H]2C[C@@H](O[C@H]3C[C@](C)(O)[C@H](O)[C@@H](C)O3)[C@@H](O)[C@@H](C)O2)[C@H](O)[C@@H](C)O1`, under setting [10], the mutagenic call was “active; positive”.
Consider `Cc1ccc2cc3c(ccc4ccccc43)cc2c1`, for which the mutagenic call was “active; positive” under setting [3]; “active; positive” (Species/Cell Type: Salmonella typhimurium (one or more of the five standard strains: TA98, TA100, TA1535, TA1537, and TA1538), Assay Type: Histidine reverse gene mutation, Ames assay, Assay Code: SAL+*, Activation: With metabolic activation, Evaluation Type: Evaluation A (Pre-1980)).
